Assay results reported in ChEMBL document CHEMBL6153058, “Pyrrolopyrazine Compounds as ERK5 Inhibitors for Treating Cancer” (ACS Med Chem Lett, 2025).

Target: Mitogen-activated protein kinase 7 (Homo sapiens, UniProt Q13164)
Assay: Inhibition of ERK5 in human SN12C cells assessed as reduction in luminescence signal by bright glo reagent based luminescent cell assay

Chain of Mitogen-activated protein kinase 7 (Q13164 whole entry): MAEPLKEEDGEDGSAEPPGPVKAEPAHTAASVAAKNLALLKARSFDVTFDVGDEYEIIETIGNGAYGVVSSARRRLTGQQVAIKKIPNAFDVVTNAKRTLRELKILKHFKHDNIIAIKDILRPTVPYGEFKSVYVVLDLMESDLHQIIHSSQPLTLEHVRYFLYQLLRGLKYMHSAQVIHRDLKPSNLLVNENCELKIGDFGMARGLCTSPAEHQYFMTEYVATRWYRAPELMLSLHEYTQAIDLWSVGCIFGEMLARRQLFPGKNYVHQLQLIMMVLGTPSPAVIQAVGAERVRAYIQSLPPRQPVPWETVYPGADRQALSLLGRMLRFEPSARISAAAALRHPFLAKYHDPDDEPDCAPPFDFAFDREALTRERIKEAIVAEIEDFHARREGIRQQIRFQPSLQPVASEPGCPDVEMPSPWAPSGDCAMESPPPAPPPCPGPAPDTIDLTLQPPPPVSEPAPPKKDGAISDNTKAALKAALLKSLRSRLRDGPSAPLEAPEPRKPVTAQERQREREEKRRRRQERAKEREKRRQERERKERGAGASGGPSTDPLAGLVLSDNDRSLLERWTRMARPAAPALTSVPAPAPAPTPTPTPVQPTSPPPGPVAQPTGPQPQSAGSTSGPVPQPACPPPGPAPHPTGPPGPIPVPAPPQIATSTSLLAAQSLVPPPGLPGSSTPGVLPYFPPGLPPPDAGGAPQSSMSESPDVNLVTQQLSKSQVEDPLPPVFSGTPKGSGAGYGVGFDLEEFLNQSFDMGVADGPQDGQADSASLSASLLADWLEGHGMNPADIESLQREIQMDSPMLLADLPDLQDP

| IC50 | Structure (SMILES) |
| --- | --- |
| 21 nM | Nc1cc(OC(F)(F)F)ccc1C(=O)N1CCC(c2c[nH]c3ncc(C4CCOC4)nc23)CC1 (configuration not stated) |
| 17 nM | Nc1cc(OC(F)(F)F)ccc1C(=O)N1CCC(c2c[nH]c3ncc([C@H]4CC[C@H](O)CC4)nc23)CC1 |
